Assays:
Assay type in all cases: in vivo
Design in all cases: key: 0 is no effect; 10 is complete control
[1] = system: bedstraw (Galium aparine); test: Test B pre-/postemergence
How it was run: (§1)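 Compounds in a surfactant-containing, non-phytotoxic solvent blend are applied to freshly planted seed (preemergence) and, concurrently, to seedlings of 2 to 18 cm at 1–4 leaves (postemergence). Plants stay in the greenhouse twelve to sixteen days and are then scored visually from 0 (no effect) to 10 (complete control).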

[2] = system: broadleaf signalgrass (Brachiaria decumbens); test: Test B pre-/postemergence
How it was run: as §1

[3] = system: cocklebur (Xanthium strumarium); test: Test B pre-/postemergence
How it was run: as §1

corn (Zea mays) = test: Test B pre-/postemergence
How it was run: as §1

[4] = system: giant foxtail (Setaria faberii); test: Test B pre-/postemergence
How it was run: as §1

[5] = system: momingglory (Ipomoea hederacea); test: Test B pre-/postemergence
How it was run: as §1

[6] = system: pigweed (Amaranthus retroflexus); test: Test B pre-/postemergence
How it was run: as §1

rape (Brassica napus) = test: Test B pre-/postemergence
How it was run: as §1

[7] = system: sugar beet (Beta vulgaris); test: Test B pre-/postemergence
How it was run: as §1

[8] = system: velvetleaf (Abutilon theophrasti); test: Test B pre-/postemergence
How it was run: as §1

[9] = system: wheat (Triticum aestivum); test: Test B pre-/postemergence
How it was run: as §1

[10] = system: bamyardgrass (Echinochloa crus-galli); test: Test B flood test; conditions: for Plant response rating, Barnyardgrass: Postemergence (flood test species)
How it was run: (§2)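 Read-out is a visual response score from 0 (no effect) to 10 (complete control), assigned by comparison with untreated controls. Treatment was applied at the 2-leaf stage, and plants stayed in the greenhouse for twelve to sixteen days before scoring.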

[11] = system: duck salad (Heteranthera limosa); test: Test B flood test; conditions: for Plant response rating, Ducksalad: Postemergence (flood test species)
How it was run: as §2

rice (Oryza sativa) = test: Test B flood test; conditions: for Plant response rating, Rice: Postemergence (flood test species)
How it was run: as §2

[12] = system: smallflower flatsedge (Cyperus difformis); test: Test B flood test; conditions: for Plant response rating, S. Flatsedge: Postemergence (flood test species)
How it was run: as §2

[13] = Preemergence, Rate 62 g/ha, scale of 0 to 10
[14] = Rate 62 g/ha, Postemergence (flood test)
[15] = Rate 125 g/ha, Postemergence section (flood test species)

Cc1cnc(-c2ccc(C(F)(F)F)cc2)nc1Cn1cc(Br)cn1 [Compound 54]
2: Corn plant response rating (corn (Zea mays); Rate 62 g/ha, Postemergence) | Corn plant response rating (corn (Zea mays); Rate 125 g/ha, Postemergence) | Giant foxtail plant response rating ([4]; Rate 62 g/ha, Postemergence) | Morningglory plant response rating ([5]; Rate 62 g/ha, Postemergence) | Plant response rating, Morningglory ([5]; Rate 250 g/ha, Preemergence) | Plant response rating, Morningglory ([5]; Rate 500 g/ha, Preemergence) | Plant response rating, Redroot pigweed ([6]; Rate 125 g/ha, Preemergence) | Velvetleaf plant response rating ([8]; Rate 62 g/ha, Postemergence) | Velvetleaf plant response rating ([8]; Rate 125 g/ha, Postemergence) | Wheat plant response rating ([9]; Rate 125 g/ha, Postemergence) | Plant response rating, Wheat ([9]; Rate 250 g/ha, Postemergence) | Plant response rating, Wheat ([9]; Rate 500 g/ha, Postemergence) | Barnyardgrass plant response rating [10, 14] | Rice plant response rating (rice (Oryza sativa); [15])
3: Bedstraw plant response rating ([1]; Rate 62 g/ha, Postemergence) | B. signalgrass plant response rating ([2]; Rate 62 g/ha, Postemergence) | B. signalgrass plant response rating ([2]; Rate 125 g/ha, Postemergence) | Plant response rating, B. signalgrass ([2]; Rate 250 g/ha, Preemergence) | Cocklebur plant response rating ([3]; Rate 62 g/ha, Postemergence) | Cocklebur plant response rating ([3]; Rate 125 g/ha, Postemergence) | Plant response rating, Corn (corn (Zea mays); Rate 250 g/ha, Postemergence) | Plant response rating, Corn (corn (Zea mays); Rate 500 g/ha, Postemergence) | Giant foxtail plant response rating ([4]; Rate 125 g/ha, Postemergence) | Morningglory plant response rating ([5]; Rate 125 g/ha, Postemergence) | Plant response rating, Morningglory ([5]; Rate 250 g/ha, Postemergence) | Plant response rating, Rape (rape (Brassica napus); Rate 250 g/ha, Preemergence) | Plant response rating, Rape (rape (Brassica napus); Rate 500 g/ha, Preemergence) | Plant response rating, Velvetleaf ([8]; Rate 250 g/ha, Postemergence) | Plant response rating, Velvetleaf ([8]; Rate 500 g/ha, Postemergence) | Barnyardgrass plant response rating [10, 15] | Plant response rating, Barnyardgrass ([10]; Rate 250 g/ha) | Plant response rating, Ducksalad ([11]; Rate 500 g/ha) | Plant response rating, Rice (rice (Oryza sativa); Rate 250 g/ha)
8: Plant response rating, Giant foxtail ([4]; Rate 250 g/ha, Preemergence) | Rape plant response rating (rape (Brassica napus); Rate 125 g/ha, Postemergence) | S. Flatsedge plant response rating [12, 15]
5: Plant response rating, B. signalgrass ([2]; Rate 500 g/ha, Postemergence) | Redroot pigweed plant response rating ([6]; Rate 125 g/ha, Postemergence)
4: Bedstraw plant response rating ([1]; Rate 125 g/ha, Postemergence) | Plant response rating, Bedstraw ([1]; Rate 500 g/ha, Preemergence) | Plant response rating, B. signalgrass ([2]; Rate 250 g/ha, Postemergence) | Plant response rating, Giant foxtail ([4]; Rate 250 g/ha, Postemergence) | Plant response rating, Giant foxtail ([4]; Rate 500 g/ha, Postemergence) | Redroot pigweed plant response rating ([6]; Rate 62 g/ha, Postemergence) | Plant response rating, Barnyardgrass ([10]; Rate 500 g/ha) | Plant response rating, Rice (rice (Oryza sativa); Rate 500 g/ha)
0: Plant response rating, Bedstraw [1, 13] | Plant response rating, Bedstraw ([1]; Rate 125 g/ha, Preemergence) | B. signalgrass plant response rating ([2]; Rate 62 g/ha, Preemergence) | Plant response rating, Cocklebur ([3]; Rate 125 g/ha, Preemergence) | Plant response rating, Cocklebur ([3]; Rate 250 g/ha, Preemergence) | Plant response rating, Cocklebur ([3]; Rate 500 g/ha, Preemergence) | Plant response rating, Corn (corn (Zea mays); [13]) | Plant response rating, Corn (corn (Zea mays); Rate 125 g/ha, Preemergence) | Plant response rating, Morningglory [5, 13] | Plant response rating, Rape (rape (Brassica napus); [13]) | Plant response rating, Rape (rape (Brassica napus); Rate 125 g/ha, Preemergence) | Plant response rating, Sugarbeets [7, 13] | Plant response rating, Velvetleaf [8, 13] | Plant response rating, Velvetleaf ([8]; Rate 125 g/ha, Preemergence) | Plant response rating, Wheat [9, 13] | Wheat plant response rating ([9]; Rate 62 g/ha, Postemergence) | Plant response rating, Wheat ([9]; Rate 125 g/ha, Preemergence) | Plant response rating, Wheat ([9]; Rate 250 g/ha, Preemergence) | Ducksalad plant response rating [11, 14] | Ducksalad plant response rating [11, 15]
9: Plant response rating, Bedstraw ([1]; Rate 500 g/ha, Postemergence) | Plant response rating, Cocklebur ([3]; Rate 500 g/ha, Postemergence) | Plant response rating, Redroot pigweed ([6]; Rate 500 g/ha, Preemergence) | Plant response rating, Rape (rape (Brassica napus); Rate 250 g/ha, Postemergence) | Plant response rating, Rape (rape (Brassica napus); Rate 500 g/ha, Postemergence) | Plant response rating, Sugarbeets ([7]; Rate 250 g/ha, Postemergence) | Plant response rating, Sugarbeets ([7]; Rate 500 g/ha, Postemergence) | Plant response rating, Sugarbeets ([7]; Rate 500 g/ha, Preemergence) | Plant response rating, S. Flatsedge ([12]; Rate 250 g/ha) | Plant response rating, S. Flatsedge ([12]; Rate 500 g/ha)
10: Plant response rating, Giant foxtail ([4]; Rate 500 g/ha, Preemergence) | Plant response rating, Morningglory ([5]; Rate 500 g/ha, Postemergence)
6: Plant response rating, B. signalgrass ([2]; Rate 500 g/ha, Preemergence) | Plant response rating, Redroot pigweed ([6]; Rate 250 g/ha, Postemergence) | Sugarbeets plant response rating ([7]; Rate 62 g/ha, Postemergence) | S. Flatsedge plant response rating [12, 14]
1: Plant response rating, Bedstraw ([1]; Rate 250 g/ha, Preemergence) | Plant response rating, B. signalgrass ([2]; Rate 125 g/ha, Preemergence) | Plant response rating, Corn (corn (Zea mays); Rate 250 g/ha, Preemergence) | Plant response rating, Corn (corn (Zea mays); Rate 500 g/ha, Preemergence) | Plant response rating, Giant foxtail [4, 13] | Plant response rating, Giant foxtail ([4]; Rate 125 g/ha, Preemergence) | Plant response rating, Morningglory ([5]; Rate 125 g/ha, Preemergence) | Plant response rating, Redroot pigweed [6, 13] | Plant response rating, Sugarbeets ([7]; Rate 125 g/ha, Preemergence) | Plant response rating, Velvetleaf ([8]; Rate 250 g/ha, Preemergence) | Plant response rating, Velvetleaf ([8]; Rate 500 g/ha, Preemergence) | Plant response rating, Wheat ([9]; Rate 500 g/ha, Preemergence) | Plant response rating, Ducksalad ([11]; Rate 250 g/ha) | Rice plant response rating (rice (Oryza sativa); [14])
7: Plant response rating, Bedstraw ([1]; Rate 250 g/ha, Postemergence) | Plant response rating, Cocklebur ([3]; Rate 250 g/ha, Postemergence) | Plant response rating, Redroot pigweed ([6]; Rate 250 g/ha, Preemergence) | Plant response rating, Redroot pigweed ([6]; Rate 500 g/ha, Postemergence) | Rape plant response rating (rape (Brassica napus); Rate 62 g/ha, Postemergence) | Sugarbeets plant response rating ([7]; Rate 125 g/ha, Postemergence) | Plant response rating, Sugarbeets ([7]; Rate 250 g/ha, Preemergence)

Source: US6525001B1, “Substituted pyrimidine and pyridine herbicides” (Mid-American Commercialization Corporation, priority 1997, dated 2003)
